Usually AC50 stands for the midpoint of the concentration-response curve, whichever way the signal moves. The term IC50 denotes the concentration at which inhibition is half-maximal. In general, EC50 refers to the concentration giving half of the maximal effect. As a reminder, the CC50 is the concentration giving 50% cytotoxicity.

Active and inactive are the calls of the source.

Chain of Cytochrome P450 2D6 (P10635 whole entry): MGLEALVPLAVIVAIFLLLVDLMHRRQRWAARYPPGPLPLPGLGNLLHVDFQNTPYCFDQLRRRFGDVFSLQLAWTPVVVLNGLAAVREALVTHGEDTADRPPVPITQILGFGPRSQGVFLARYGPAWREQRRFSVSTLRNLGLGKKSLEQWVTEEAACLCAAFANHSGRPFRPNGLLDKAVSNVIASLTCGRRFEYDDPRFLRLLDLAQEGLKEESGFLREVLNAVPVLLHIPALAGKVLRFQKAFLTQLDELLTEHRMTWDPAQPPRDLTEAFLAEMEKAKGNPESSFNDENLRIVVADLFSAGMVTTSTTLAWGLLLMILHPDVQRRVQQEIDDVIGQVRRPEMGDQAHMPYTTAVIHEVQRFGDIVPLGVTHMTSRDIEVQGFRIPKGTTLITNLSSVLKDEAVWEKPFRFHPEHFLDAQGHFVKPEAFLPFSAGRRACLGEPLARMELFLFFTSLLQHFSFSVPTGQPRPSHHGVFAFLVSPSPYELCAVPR

Tested on in the first experiment: not listed separately
Description: P. falciparum Dd2 growth inhibitors, dose response, SYBR Green, cherry-picked samples (AID 1159567). It counts as functional, cell-based.
Conditions: not given
Turning to `O=C(c1ccccn1)N1CC2(C1)[C@@H](c1ccccc1)[C@H](CO)N2Cc1ccc(Cl)cc1`, the concentration at half-maximal activity (AC50) is 4.6 µM (active).

On to `COc1cccc(-c2ccc3c(c2)[C@@H]2[C@@H](CCN2S(=O)(=O)c2cn(C)cn2)[C@@H](CO)N3)c1`, for which the AC50 is 9.63 µM (active).

For the compound `C[C@@H]1CN([C@H](C)CO)S(=O)(=O)c2ccc(C3=CCCCC3)cc2O[C@H]1CN(C)C(=O)Cc1ccncc1`, the AC50 is 3.22 µM (active).

On to `CCC(=O)N1CC2(C1)[C@H](c1ccccc1)[C@H](CO)N2Cc1ccccc1OC`, for which the half-maximal activity concentration (AC50) is 8.35 µM (active).

Consider `C[C@@H]1CN([C@@H](C)CO)C(=O)Cc2cc(NC(=O)Nc3ccccc3)ccc2O[C@H]1CN(C)CC1CC1`, for which the half-maximal activity concentration (AC50) was 8.09 µM (active).

As for `COc1ccc(NC(=O)N2CCC3(CC2)CN(C(=O)C2CCC2)[C@@H](CO)c2c3c3ccc(OC)cc3n2C)cc1`, the AC50 was 6.04 µM (active).

Another experiment deals with T1, Protein skinhead-1 (Caenorhabditis elegans, UniProt P34707).
T1 sequence (P34707 whole entry): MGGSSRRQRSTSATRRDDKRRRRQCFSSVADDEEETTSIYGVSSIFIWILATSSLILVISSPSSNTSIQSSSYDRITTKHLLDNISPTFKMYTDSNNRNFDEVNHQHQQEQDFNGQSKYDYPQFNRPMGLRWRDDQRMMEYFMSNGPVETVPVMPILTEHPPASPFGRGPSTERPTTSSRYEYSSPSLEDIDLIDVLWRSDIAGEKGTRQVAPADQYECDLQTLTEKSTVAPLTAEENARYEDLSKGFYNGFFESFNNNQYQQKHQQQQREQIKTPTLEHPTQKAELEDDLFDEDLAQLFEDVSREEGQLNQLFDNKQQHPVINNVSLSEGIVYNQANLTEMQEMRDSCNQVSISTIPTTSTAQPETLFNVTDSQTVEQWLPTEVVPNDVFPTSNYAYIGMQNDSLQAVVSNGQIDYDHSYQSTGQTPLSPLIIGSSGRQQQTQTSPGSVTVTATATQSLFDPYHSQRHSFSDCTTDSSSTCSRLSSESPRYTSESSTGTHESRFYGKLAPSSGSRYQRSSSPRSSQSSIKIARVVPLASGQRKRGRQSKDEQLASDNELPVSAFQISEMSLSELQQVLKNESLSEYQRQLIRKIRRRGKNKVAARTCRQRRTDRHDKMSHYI
Assay: not given
Conditions: not given
It counts as functional.
Consider `COCC(=O)Nc1sc2c(c1C(=O)OC)CCCC2`, for which the IC50 was > 100 µM (inactive).

Regarding `CC1CCCCC1N1CN=C(Nc2nc3ccccc3s2)NC1` (stereo unspecified), the IC50 was > 100 µM (inactive).

With `O=C1/C(=C/c2cccs2)CCC1C1CCCC1` (stereo unspecified), the IC50 is > 100 µM (inactive).

For the compound `O=C(Nc1ccc2[nH]c(-c3ccccc3)nc2c1)c1cccs1`, the IC50 is > 100 µM (inactive).

`COC(=O)c1oc2ccc(Cl)cc2c1-n1cccc1`: the IC50 is > 100 µM (inactive).

Consider `Clc1ccc(C=Cc2ccccn2)cc1`, for which the IC50 was 5.71 µM (active).

On to `Cc1cnc(NC(=O)CC(C)c2ccccc2)s1` (stereo unspecified), for which the IC50 was > 100 µM (inactive).

As for `O=C1C2C(C(=O)N1Cc1cccnc1)C1C=CC2C12CC2` (stereo unspecified), the IC50 is > 100 µM (inactive).

Take `Cc1ccc(C2CC(=O)Oc3cc(O)ccc32)cc1` (stereo unspecified): the IC50 was > 100 µM (inactive).

The next experiment deals with T2, Heat shock factor protein 1 (Mus musculus, UniProt P38532).
T2 sequence (P38532 whole entry): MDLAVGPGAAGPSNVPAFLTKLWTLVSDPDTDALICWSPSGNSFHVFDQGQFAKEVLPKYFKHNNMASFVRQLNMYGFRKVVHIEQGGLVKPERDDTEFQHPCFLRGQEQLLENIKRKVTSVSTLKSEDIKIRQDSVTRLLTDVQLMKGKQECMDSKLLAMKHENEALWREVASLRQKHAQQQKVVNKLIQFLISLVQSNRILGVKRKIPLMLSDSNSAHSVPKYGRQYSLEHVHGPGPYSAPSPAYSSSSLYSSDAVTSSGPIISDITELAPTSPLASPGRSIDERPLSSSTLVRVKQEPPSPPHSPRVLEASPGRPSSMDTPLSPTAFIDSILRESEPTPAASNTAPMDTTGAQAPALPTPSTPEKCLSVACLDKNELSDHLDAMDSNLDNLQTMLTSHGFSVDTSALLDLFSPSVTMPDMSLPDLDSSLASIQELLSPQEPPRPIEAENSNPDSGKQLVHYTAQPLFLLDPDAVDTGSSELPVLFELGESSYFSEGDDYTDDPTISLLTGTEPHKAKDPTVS
The experiment in a line: decrease of HSF1-responsive luciferase luminescence – cell-based, NIH3T3, dose retest, confirmation (AID 2382).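 Further: NIH3T3 fibroblasts with HSF1-driven luciferase reporter stressed by proteasome inhibitor MG132; luminescence from HSF1-driven luciferase expression after 8 hours of MG132 stress.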
Conditions: not given
It counts as functional.
With `O=C(CNC(=O)C12CC3CC(CC(C3)C1)C2)NCc1ccccc1`, the EC50 is on record as > 195 µM (not active).

In the case of `CCc1ccccc1NC(=O)COc1cccc2ccc(C)nc12`, the EC50 is > 195 µM (not active).

Regarding `Cc1ccccc1OCC(=O)Nc1ccc([N+](=O)[O-])cc1`, the EC50 is listed as > 195 µM (not active).

Turning to `O=[N+]([O-])c1ccc(O)c(/C=N/c2ccc3oc(Cc4ccc(Cl)cc4)nc3c2)c1`, the EC50 is given as > 195 µM (not active).

Take `CCCN(CCC)C(=O)CSc1nc2ccsc2c(=O)n1NC(=O)c1ccccc1`: the concentration giving a half-maximal response (EC50) is > 195 µM (not active).

For `Cn1ncc([N+](=O)[O-])c1C(=O)Nc1ccccc1Cl`, the EC50 was > 195 µM (not active).

Take `COc1ccc(NS(=O)(=O)c2ccc3[nH]c(COc4ccc5ccccc5c4)nc3c2)cc1`: the EC50 was > 195 µM (not active).

As to `O=Cc1ccc(OC(=O)Cc2ccc(F)cc2)cc1`, the EC50 is reported as > 195 µM (not active).

In another experiment the target is T3, Replicative DNA helicase DnaB (Mycobacterium tuberculosis, UniProt P9WMR3).
T3 sequence (P9WMR3 whole entry): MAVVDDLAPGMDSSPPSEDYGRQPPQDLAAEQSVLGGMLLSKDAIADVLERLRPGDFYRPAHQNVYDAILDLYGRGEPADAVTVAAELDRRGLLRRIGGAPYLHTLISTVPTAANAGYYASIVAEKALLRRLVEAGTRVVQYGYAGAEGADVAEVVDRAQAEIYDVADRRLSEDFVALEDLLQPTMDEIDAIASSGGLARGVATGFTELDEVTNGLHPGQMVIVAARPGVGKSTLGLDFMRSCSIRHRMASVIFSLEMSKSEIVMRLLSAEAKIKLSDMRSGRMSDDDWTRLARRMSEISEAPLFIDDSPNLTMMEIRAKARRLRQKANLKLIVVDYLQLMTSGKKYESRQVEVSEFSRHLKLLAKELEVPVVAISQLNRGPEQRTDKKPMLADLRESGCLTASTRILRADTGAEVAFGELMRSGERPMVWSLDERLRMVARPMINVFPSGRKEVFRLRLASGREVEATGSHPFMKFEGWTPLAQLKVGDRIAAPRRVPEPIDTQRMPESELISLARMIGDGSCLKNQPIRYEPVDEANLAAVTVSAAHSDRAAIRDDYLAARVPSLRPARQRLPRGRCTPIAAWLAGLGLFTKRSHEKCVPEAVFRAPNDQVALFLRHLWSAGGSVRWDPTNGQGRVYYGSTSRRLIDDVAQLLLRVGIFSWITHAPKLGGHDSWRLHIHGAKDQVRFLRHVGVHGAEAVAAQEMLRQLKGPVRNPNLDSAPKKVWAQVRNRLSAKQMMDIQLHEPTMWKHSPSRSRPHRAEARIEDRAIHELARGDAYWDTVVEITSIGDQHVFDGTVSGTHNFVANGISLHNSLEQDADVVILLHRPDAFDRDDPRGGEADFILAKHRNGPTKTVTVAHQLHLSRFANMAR
The experiment in a line: DnaB intein splicing inhibitors, dose response, biochemical, cell-free fluorescence (AID 449749). It counts as functional.
Conditions: not given
`O=c1cc(-c2ccccc2)[nH]n1-c1ccc([N+](=O)[O-])cc1`: the half-maximal activity concentration (AC50) is 3.09 µM (active).

The target of another experiment is Cytochrome P450 3A4 (Homo sapiens, UniProt P08684).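 Further: CYP3A4 tested as one member of a cytochrome P450 panel screen.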
Chain of Cytochrome P450 3A4 (P08684 whole entry): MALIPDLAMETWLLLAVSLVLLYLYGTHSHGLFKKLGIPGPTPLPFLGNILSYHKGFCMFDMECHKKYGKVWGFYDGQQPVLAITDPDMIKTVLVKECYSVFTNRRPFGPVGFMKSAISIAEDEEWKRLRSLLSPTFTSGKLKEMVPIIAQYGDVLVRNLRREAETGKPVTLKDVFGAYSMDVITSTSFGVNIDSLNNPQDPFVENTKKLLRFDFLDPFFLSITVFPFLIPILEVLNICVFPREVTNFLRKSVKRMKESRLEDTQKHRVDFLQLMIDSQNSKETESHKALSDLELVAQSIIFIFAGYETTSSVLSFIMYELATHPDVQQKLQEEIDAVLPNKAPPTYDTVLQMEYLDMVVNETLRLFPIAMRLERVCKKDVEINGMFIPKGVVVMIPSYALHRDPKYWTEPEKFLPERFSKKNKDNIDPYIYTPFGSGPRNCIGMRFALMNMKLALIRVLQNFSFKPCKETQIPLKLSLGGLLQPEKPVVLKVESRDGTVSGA
Assay: not given
Conditions: not given
For `Cc1ccccc1OCCCn1c(=O)sc2ccccc21`, the AC50 is 17.8 µM (inconclusive).

Tested on in the next experiment: not listed separately
Description: Luminescence Cell-Based Dose Retest to Confirm Inhibitors of Cancer Stem Cells. [Related pubchem assays (depositor defined):AID2717, AID2721]. It counts as functional. Conditions: Homo sapiens.
For `O=c1cc(-c2ccccc2)[nH]n1-c1ccc([N+](=O)[O-])cc1`, the AC50 is 4.13 µM (active).

`CC1(C)Cc2ccccc2C(CSc2ccccc2C(=O)O)=N1`: the AC50 is 4.98 µM (active).

For the compound `COc1cccc(C(=O)Nc2ccc(C3CC3(Cl)Cl)cc2)c1` (stereo unspecified), the half-maximal activity concentration (AC50) was 3.15 µM (active).

`O=C(Nc1ccc(NC(=S)NC(=O)c2ccccc2Cl)cc1)c1cccc(Cl)c1`: the AC50 is 3.26 µM (active).

Take `COc1cc2cnc(-c3ccccc3)c(-c3cccc(C(F)(F)F)c3)c2cc1OC`: the AC50 is 4.47 µM (active).

Another experiment has as its target Cytochrome P450 2D6 (Homo sapiens, UniProt P10635).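 Further: CYP2D6 member of a cytochrome P450 panel assay.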
Assay: not given
Conditions: not given
In the case of `Cc1ccccc1OCCCn1c(=O)sc2ccccc21`, the concentration at half-maximal activity (AC50) was 11.2 µM (inconclusive).

Tested on in the next experiment: not listed separately
The experiment in a line: viability of uninfected HEp-2 cells – cell-based, HTS, cytotoxicity control for RSV inhibitor project, dose response (AID 2410). It counts as functional. Conditions: human respiratory syncytial virus.
`Cc1ccc(C2=NN(S(=O)(=O)c3ccccc3)C(c3ccco3)C2)cc1` (stereo unspecified): the cytotoxic concentration (CC50) was 8.13 µM (active).

`CNc1nc(-c2ccccc2)nnc1C(F)(F)F`: the 50% cytotoxic concentration (CC50) was 27.7 µM (active).

Take `COc1ccc(Cl)cc1-c1nc(-c2ccc(NC(=O)c3cccs3)cc2)no1`: the half-maximal cytotoxic concentration (CC50) is 23.2 µM (active).

Turning to `FC(F)(F)c1nnc2n1N=C(c1cccs1)CS2`, the CC50 is 22.6 µM (active).

Consider `O=C(Nc1ccc(NC(=S)NC(=O)c2ccccc2Cl)cc1)c1cccc(Cl)c1`, for which the CC50 is > 50 µM (active).

On to `CCCCOc1ccc2c(c1)C(=O)c1cc(O)ccc1-2`, for which the cytotoxic concentration (CC50) was 11.7 µM (active).

Take `Cc1ccccc1OCCCn1c(=O)sc2ccccc21`: the half-maximal cytotoxic concentration (CC50) is 32.2 µM (active).

`CCCN(Cc1nnc(-c2ccccc2Cl)o1)C(=O)c1cc2ccccc2o1`: the 50% cytotoxic concentration (CC50) is 19.5 µM (active).

A further experiment relates to H9c2. The experiment in a line: cells. It counts as functional, cell-based. Particulars: Rattus norvegicus, H9c2, Myocardium.
With `COc1ccc(Cl)cc1-c1nc(-c2ccc(NC(=O)c3cccs3)cc2)no1`, the IC50 was > 79 µM (inactive).

A further experiment deals with T4, Protein RecA (Mycobacterium tuberculosis, UniProt P9WHJ3).
T4 sequence (P9WHJ3 whole entry): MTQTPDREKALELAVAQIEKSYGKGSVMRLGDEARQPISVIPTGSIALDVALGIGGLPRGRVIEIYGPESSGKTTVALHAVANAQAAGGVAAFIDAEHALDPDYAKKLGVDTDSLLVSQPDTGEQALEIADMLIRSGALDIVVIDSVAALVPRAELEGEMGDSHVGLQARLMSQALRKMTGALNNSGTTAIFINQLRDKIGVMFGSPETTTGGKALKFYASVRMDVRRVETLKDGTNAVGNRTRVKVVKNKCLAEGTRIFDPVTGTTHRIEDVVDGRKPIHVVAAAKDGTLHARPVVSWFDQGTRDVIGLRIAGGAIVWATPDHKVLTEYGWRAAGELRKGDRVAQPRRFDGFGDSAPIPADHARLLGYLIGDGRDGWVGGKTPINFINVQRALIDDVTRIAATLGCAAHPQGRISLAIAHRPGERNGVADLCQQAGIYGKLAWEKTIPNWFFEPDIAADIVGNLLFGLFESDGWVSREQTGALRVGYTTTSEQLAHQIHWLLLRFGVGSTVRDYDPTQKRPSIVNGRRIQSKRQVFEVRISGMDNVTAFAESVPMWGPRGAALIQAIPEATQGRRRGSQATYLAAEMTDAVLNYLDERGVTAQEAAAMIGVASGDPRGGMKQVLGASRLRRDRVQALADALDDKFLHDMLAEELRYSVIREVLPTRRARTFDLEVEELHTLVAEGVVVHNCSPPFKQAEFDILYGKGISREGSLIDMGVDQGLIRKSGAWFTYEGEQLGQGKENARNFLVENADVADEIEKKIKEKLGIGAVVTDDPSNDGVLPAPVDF
The experiment in a line: Fluorescence Cell-Free Homogeneous Dose Retest to Identify Inhibitors of RecA-Intein Splicing Activity. [Related pubchem assays (depositor defined):AID2097, AID2223, AID489010, AID492950]. It counts as functional.
Conditions: not given
`O=c1cc(-c2ccccc2)[nH]n1-c1ccc([N+](=O)[O-])cc1`: the concentration giving a half-maximal response (EC50) was 11 µM (active).

The values above are taken from ChEMBL document CHEMBL1201862, “PubChem BioAssay data set” (2004).
